Measured values taken from patent US12257237B2 (priority 2017, dated 2025).

Tested on: DD013 dedifferentiated liposarcoma
Assay: Antitumour activity in DD013 dedifferentiated liposarcoma xenograft model
Format: in vivo, Athymic nude mice
Details: for optimal T/C: day 50
Procedure: Experiments were performed with female Athymic nude mice, 9-10 weeks old obtained from Harlan Laboratories (Udine, Italy). They were maintained under Specific Pathogen Free conditions with constant temperature and humidity, according to the institutional guidelines.
Tumour growth mice was monitored two/three times a week (depending on tumour growth rate, to avoid unnecessary stress to the animals) by Vernier caliper. Mice were sacrificed when tumour reached a mean weight of 2±0.5 gr. The antitumour activity will be expressed as T/C %, where T and C were the mean tumour weight of treated and control groups, respectively. Mice were monitored daily and weighted at least two times a week. Tolerability was evaluated on the basis of body weight loss (BWL) and clinical observation.
Statistical analysis was performed with GraphPad Prism version 6.01 software (GraphPad software, Inc., La Jolla, CA, USA). ANOVA test was performed to evaluate if there were statistically significant differences between treated and control groups.
Briefly, xenografts were obtained by transplanting 3-4 mm tumour fragments s.c. in the flanks of mice. The growing tumour masses were measured with the aid of a Vernier caliper, and the tumour weights (TW, 1 mm^3=1 mg) were calculated by the formula: length×(width) 2/2. When tumour load achieved about 200-400 mg, mice were randomized into the experimental groups.

With Cn1c(CCCCCCC(=O)NO)nc2cc(N(CCCl)CCCl)ccc21 [EDO-S101, 7-(5-(bis(2-chloroethyl)amino)-1-methyl-1H-benzo[d]imidazol-2-yl)-N-hydroxyheptanamide] the “optimal T/C” value (40 mg/kg i.v. q7dx3) was 27.2%, the “effect on tumour growth” value (40 mg/kg q7dx3, first cycle) was “reduced tumour growth, but without a complete arrest” and the “effect of second cycle on tumour growth” value (40 mg/kg, second cycle from day 50) was “promoted tumour growth arrest”. The “optimal T/C” value (60 mg/kg i.v. q7dx3) was 14%, the “effect on tumour growth” value (60 mg/kg, first cycle) was “induced tumour growth arrest” and the “effect of second cycle on tumour growth” value (60 mg/kg, second cycle from day 72) was “sustained tumour growth arrest”. The “optimal T/C” value (80 mg/kg i.v. single dose) was 18%, the “effect on tumour growth” value (80 mg/kg, first cycle) was “induced tumour growth arrest” and the “effect of second cycle on tumour growth” value (80 mg/kg, second cycle from day 58) was “Tumour growth arrest was also observed”. For the same compound, the “DD0113 tumour weight, Mean” value (EDO40: EDO-S101 40 mg/kg q7dx3, day 23 from inoculum) was 198.6 mg, the “DD0113 tumour weight, Mean” value (EDO40: EDO-S101 40 mg/kg q7dx3, day 26 from inoculum) was 283.6 mg and the “DD0113 tumour weight, Mean” value (EDO40: EDO-S101 40 mg/kg q7dx3, day 29 from inoculum) was 319.2 mg. For the same compound, the “DD0113 tumour weight, Mean” value (EDO40: EDO-S101 40 mg/kg q7dx3, day 33 from inoculum) was 394.4 mg, the “DD0113 tumour weight, Mean” value (EDO40: EDO-S101 40 mg/kg q7dx3, day 36 from inoculum) was 380.3 mg and the “DD0113 tumour weight, Mean” value (EDO40: EDO-S101 40 mg/kg q7dx3, day 40 from inoculum) was 433.4 mg. The “DD0113 tumour weight, Mean” value (EDO40: EDO-S101 40 mg/kg q7dx3, day 43 from inoculum) was 451.3 mg, the “DD0113 tumour weight, Mean” value (EDO40: EDO-S101 40 mg/kg q7dx3, day 47 from inoculum) was 507.4 mg and the “DD0113 tumour weight, Mean” value (EDO40: EDO-S101 40 mg/kg q7dx3, day 50 from inoculum) was 570.5 mg. The “DD0113 tumour weight, Mean” value (EDO40: EDO-S101 40 mg/kg q7dx3, day 54 from inoculum) was 599.5 mg, the “DD0113 tumour weight, Mean” value (EDO40: EDO-S101 40 mg/kg q7dx3, day 58 from inoculum) was 584.1 mg and the “DD0113 tumour weight, Mean” value (EDO40: EDO-S101 40 mg/kg q7dx3, day 62 from inoculum) was 677.9 mg. For the same compound, the “DD0113 tumour weight, Mean” value (EDO40: EDO-S101 40 mg/kg q7dx3, day 65 from inoculum) was 677.8 mg, the “DD0113 tumour weight, Mean” value (EDO40: EDO-S101 40 mg/kg q7dx3, day 69 from inoculum) was 703.2 mg and the “DD0113 tumour weight, Mean” value (EDO40: EDO-S101 40 mg/kg q7dx3, day 72 from inoculum) was 669.8 mg. The “DD0113 tumour weight, Mean” value (EDO40: EDO-S101 40 mg/kg q7dx3, day 75 from inoculum) was 666.1 mg, the “DD0113 tumour weight, Mean” value (EDO40: EDO-S101 40 mg/kg q7dx3, day 79 from inoculum) was 756.8 mg and the “DD0113 tumour weight, Mean” value (EDO40: EDO-S101 40 mg/kg q7dx3, day 83 from inoculum) was 683.9 mg. For the same compound, the “DD0113 tumour weight, Mean” value (EDO40: EDO-S101 40 mg/kg q7dx3, day 87 from inoculum) was 935.9 mg, the “DD0113 tumour weight, Mean” value (EDO40: EDO-S101 40 mg/kg q7dx3, day 90 from inoculum) was 1022.8 mg and the “DD0113 tumour weight, Mean” value (EDO40: EDO-S101 40 mg/kg q7dx3, day 94 from inoculum) was 1226.5 mg. The “DD0113 tumour weight, Mean” value (EDO40: EDO-S101 40 mg/kg q7dx3, day 98 from inoculum) was 1338.0 mg, the “DD0113 tumour weight, Mean” value (EDO40: EDO-S101 40 mg/kg q7dx3, day 100 from inoculum) was 1553.1 mg and the “DD0113 tumour weight, Mean” value (EDO60: EDO-S101 60 mg/kg q7dx3, day 23 from inoculum) was 199.2 mg. For the same compound, the “DD0113 tumour weight, Mean” value (EDO60: EDO-S101 60 mg/kg q7dx3, day 26 from inoculum) was 272.5 mg, the “DD0113 tumour weight, Mean” value (EDO60: EDO-S101 60 mg/kg q7dx3, day 29 from inoculum) was 310.4 mg and the “DD0113 tumour weight, Mean” value (EDO60: EDO-S101 60 mg/kg q7dx3, day 33 from inoculum) was 373.1 mg. For the same compound, the “DD0113 tumour weight, Mean” value (EDO60: EDO-S101 60 mg/kg q7dx3, day 36 from inoculum) was 334.2 mg, the “DD0113 tumour weight, Mean” value (EDO60: EDO-S101 60 mg/kg q7dx3, day 40 from inoculum) was 371.2 mg and the “DD0113 tumour weight, Mean” value (EDO60: EDO-S101 60 mg/kg q7dx3, day 43 from inoculum) was 339.5 mg. For the same compound, the “DD0113 tumour weight, Mean” value (EDO60: EDO-S101 60 mg/kg q7dx3, day 47 from inoculum) was 330.2 mg, the “DD0113 tumour weight, Mean” value (EDO60: EDO-S101 60 mg/kg q7dx3, day 50 from inoculum) was 310.9 mg and the “DD0113 tumour weight, Mean” value (EDO60: EDO-S101 60 mg/kg q7dx3, day 54 from inoculum) was 321.1 mg. The “DD0113 tumour weight, Mean” value (EDO60: EDO-S101 60 mg/kg q7dx3, day 58 from inoculum) was 303.3 mg, the “DD0113 tumour weight, Mean” value (EDO60: EDO-S101 60 mg/kg q7dx3, day 62 from inoculum) was 298.3 mg and the “DD0113 tumour weight, Mean” value (EDO60: EDO-S101 60 mg/kg q7dx3, day 65 from inoculum) was 291.6 mg. For the same compound, the “DD0113 tumour weight, Mean” value (EDO60: EDO-S101 60 mg/kg q7dx3, day 69 from inoculum) was 334.6 mg, the “DD0113 tumour weight, Mean” value (EDO60: EDO-S101 60 mg/kg q7dx3, day 72 from inoculum) was 423.7 mg and the “DD0113 tumour weight, Mean” value (EDO60: EDO-S101 60 mg/kg q7dx3, day 75 from inoculum) was 432.9 mg. For the same compound, the “DD0113 tumour weight, Mean” value (EDO60: EDO-S101 60 mg/kg q7dx3, day 79 from inoculum) was 475.7 mg and the “DD0113 tumour weight, Mean” value (EDO60: EDO-S101 60 mg/kg q7dx3, day 83 from inoculum) was 376.9 mg.
